Test system: PC, PG and PE : PG mixed nanodiscs
Assay: Phospholipid nanodisc 1H NMR CPMG coordination assay, comparison across the three nanodiscs
Format: binding
Conditions: SSA 0.10 mM, in words
Source text: Finally, to establish how any single SSA structural variation affects the coordination of an individual salt component to the surface of a phospholipid membrane, the binding of the anionic and cationic components of SSAs 5–12 with nanodiscs comprised of PC, PG or the PE : PG mix (Table 2) was studied. Nanodiscs were synthesised from synthetic vesicles of the relevant phospholipid composition. For full synthetic procedures and nanodisc characterisation please see ESI (Section 13). ^†[34,35]
Styrene-maleic acid (SMA) nanodiscs are small biomimetic scaffolds with a hydrodynamic diameter ≈ 10 nm. […]
Fluorescence polarisation: Lipid films were resuspended in Buffer (150 mM KCl, 10 mM HEPES, pH 7.4, 2 mM EGTA) and subjected to 9 freeze-thaw cycles in liquid nitrogen and extruded 20 times through a 200 nm polycarbonate membrane. […]
Nanodisc preparation: Lipid films were resuspended in Buffer (20 mM NaCl, 20 mM NaH 2PO4, pH 7.4) and sonicated for 1 hour, at a 5:1 ratio, SMA was added and incubated at 37 °C for 1 hour. Dialysed overnight in 5 L of the same buffer in 10 KDa cut-off dialysis tubing, concentrated, and underwent gel filtration size exclusion chromatography on a Superdex 200 10/300 GL column (GE Healthcare) in the same buffer, whilst monitoring absorbance at 260 nm. Nanodisc quantification carried out via monitoring of absorbance at 260 nm using a calibration curve.2 […]

Structure (SMILES) | interaction of the anionic component of SSA with phospholipid nanodiscs
Cc1ccc2nc(NC(=O)NCS(=O)(=O)O)sc2c1 [SSA 7] | not to interact with any great significance to any of the phospholipid nanodiscs tested
Cc1ccc2nc(-c3ccc(NC(=S)NCS(=O)(=O)O)cc3)sc2c1 [SSA 12] | greatest binding affinity for all three nanodiscs of the SSAs tested

— paper PMC9400670, “Establishing the selective phospholipid membrane coordination, permeation and lysis properties for a series of ‘druggable’ supramolecular self-associating antimicrobial amphiphiles” (Chemical Science, 2022)
